Test system: adiponectin promoter
Assay: cells
Type: cell-based, human
Conditions: for concentration at which the greatest transactivation was achieved: dose-response curve of commercial activator on the target promoter
From the text: The following protocol has been followed for the purpose of analyzing the potential therapeutic activity against obesity, type 2 diabetes mellitus and atherosclerosis (ODA metabolic diseases) of the compounds 1-4: • generating cell lines which have stably integrated human promoters of key genes in the development of ODA diseases; • amplifying the human promoter sequence of the target genes starting from commercial human genomic DNA; • cloning the promoter into a suitable vector which allows knowing the transcriptional activity of the promoter sequence, using the luciferase gene as a reporter gene; • generating stable cell lines for each of the promoters cloned into the reporter vectors; • carrying out the screening test with the compounds of the invention on the stable cell lines; • suitably validating the effect obtained with a certain compound which can modify the transcriptional activity of the promoter.
The selected cell line is C2C12, corresponding to myoblasts from mouse muscle tissue.
The luciferase activity is measured according to the following protocol: • a) 50000 and 1200000 cells/well (and in duplicate) are seeded in a P24 plate. • b) After approximately 24 hours, the medium is removed from the cells and each well is washed with PBS 1x (because DMEM interferes in the measurement of the activity of the reporter gene) • c) 100 µl of luciferase developing reagent are added in each cell (Bright-GloTM Luciferase Assay system- Promega). This reagent carries the reporter gene substrate and luminescence is generated as the product of the enzymatic reaction. The cells which have acquired the reporter gene, and therefore the target promoter, will be luminescent upon being in the presence of said substrate. To record the measurement of luciferase activity, the plate is shaken for 30 seconds right after adding the developing reagent and after 2 minutes, the volume is collected and transferred to a 96-well plate (P96), which can be read in an illuminometer. • d) The suitable luminescence program is selected, such that the reading lasts 5 seconds per well, and the arbitrary luminescence units are recorded for each obtained clone or, in other words, for each stable cell line.
The reaction substrate is photosensitive, therefore it is important to keep the plate in darkness from the time the reagent is added until the luciferase activity is recorded or read in each experiment. Carrying out the screening test: The clones used in the screening are: C2C12 Adipo (adiponectin promoter), C2C12 UCP3 (UCP3 promoter), C2C12 AdR1 (adiponectin receptor 1 promoter) and C2C12 Nmu (neuromedin promoter).
Before any screening experiment, the suitable number of cells for carrying out such experiments must first be provided. To that end, 2 T75 are usually seeded (with approximately 1x10^6 cells in each bottle), such that after four days, the cells have reached confluence and are ready for the screening protocol detailed below to be carried out. • 1. Day 1: 30000 cells per well are seeded in white P96 plates; these plates allow amplifying the luminescence signal and improving the reading. The cells are grown in 100 µl of hygromycin-free medium. • 2. Day 2: 24 hours after the seeding, the cells are stimulated with compounds 1-4. Compounds 1-4 are assayed in duplicate at 1, 5 and 10 µg/ml concentrations, by means of the screening method shown in the following diagram: [formula] ? In the indicated positions, the baseline transcriptional activity of the promoters to be studied is recorded in the presence of the medium in which compounds 1-4 (vehicle) are dissolved. ? In the indicated positions, the transcriptional activity of the promoters to be studied is recorded in the presence of a known commercial activator of the target promoter. […]

[1] = Mus musculus, C2C12, 48 h, read-out: activation ratio

COC(=O)c1ccnc(NCC=C(C)CCC=C(C)C)c1 [Compound 1, 2-(3,7-dimethyl-octa-2,6-dienylamino)-isonicotinic acid methyl ester] was tested, and the fold induction at 0.5 µM [1] was 1.67, the fold induction at 1 µM [1] was 2.02 and the fold induction at 5 µM [1] was 3.33. The fold induction at 10 µM [1] was 4.07, the fold induction at 25 µM [1] was 4.05 and the fold induction at 50 µM [1] was 3.92. For the same molecule, the fold induction at 100 µM [1] was 3.06 and the fold induction at 200 µM [1] was 2.57.
Molecule CC(C)=CCNc1cccc(C(=O)O)c1 [Compound 2, 3-(3-methyl-but-2-enylamino)-benzoic acid] has a fold induction at 0.01 µM [1] of 1.05, a fold induction at 1 µM [1] of 1.69 and a fold induction at 5 µM [1] of 2.78. For the same molecule, the fold induction at 15 µM [1] was 3.43, the fold induction at 25 µM [1] was 3.57 and the fold induction at 50 µM [1] was 3.66. It also gave a fold induction at 200 µM [1] of 3.04 and a fold induction at 400 µM [1] of 1.81.
COC(=O)c1cccc(NCC=C(C)C)c1 [Compound 3, 3-(3-methyl-but-2-enylamino)-benzoic acid methyl ester] showed a fold induction at 0.5 µM [1] of 1.07, a fold induction at 1 µM [1] of 1.26 and a fold induction at 5 µM [1] of 1.98. For the same molecule, the fold induction at 10 µM [1] was 1.85, the fold induction at 25 µM [1] was 2.46 and the fold induction at 50 µM [1] was 2.61. The fold induction at 100 µM [1] was 2.34 and the fold induction at 200 µM [1] was 1.92.
COC(=O)c1cccc(NCC=C(C)CCC=C(C)C)c1 [Compound 4, 3-(3,7-dimethyl-octa-2,6-dienylamino)-benzoic acid methyl ester] gave a fold induction at 0.5 µM [1] of 2.32, a fold induction at 1 µM [1] of 2.59 and a fold induction at 5 µM [1] of 3.53. For the same molecule, the fold induction at 10 µM [1] was 3.71, the fold induction at 25 µM [1] was 3.47 and the fold induction at 50 µM [1] was 3.28. The fold induction at 100 µM [1] was 2.53 and the fold induction at 200 µM [1] was 1.78.
In the case of O=c1c(-c2ccc(O)cc2)coc2cc(O)ccc12 [Daidzein, daidzein, reference compound], the fold induction at 1 µM [1] is reported as 1.68, the fold induction at 5 µM [1] is reported as 3.03 and the fold induction at 10 µM [1] is reported as 3.76. For the same molecule, the fold induction at 20 µM [1] was 4.04, the fold induction at 50 µM [1] was 4.05 and the fold induction at 100 µM [1] was 3.71. For the same molecule, the “concentration at which the greatest transactivation was achieved” value (shortened to “concentration”) was 20 µM.
O=c1c(-c2ccc(O)cc2)coc2cc(O)cc(O)c12 [Genistein, genistein, reference compound] gave a fold induction at 1 µM [1] of 1.47, a fold induction at 5 µM [1] of 2.25 and a fold induction at 10 µM [1] of 3.59. The fold induction at 20 µM [1] was 3.05, the fold induction at 50 µM [1] was 1.97 and the fold induction at 100 µM [1] was 1.75. For the same molecule, the fold induction at 200 µM [1] was 1.59 and the “concentration” value was 20 µM.
With CN(CCOc1ccc(CC2SC(=O)NC2=O)cc1)c1ccccn1 (stereo not drawn) [Rosiglitazone, reference compound] the “concentration” value was 20 µM.
